Read-outs that look alike come from different tables or passages of the source.
Experiments:
[1] = target: T1, Human KIF18A (amino acid sequence 1-417) (Homo sapiens, UniProt Q8NI77); assay: Enzymatic activity test (ADP-Glo, microtubule-stimulated KIF18A ATPase); type: biochemical; settings: 60 μg/mL microtubules, 25 μM ATP, 2.5 nM KIF18A protein, 120 min at ambient temperature, read-out: KIF18A_nM
T1 construct: purchased Viva Biotech (Shanghai) Ltd
T1 sequence (Q8NI77 1-417): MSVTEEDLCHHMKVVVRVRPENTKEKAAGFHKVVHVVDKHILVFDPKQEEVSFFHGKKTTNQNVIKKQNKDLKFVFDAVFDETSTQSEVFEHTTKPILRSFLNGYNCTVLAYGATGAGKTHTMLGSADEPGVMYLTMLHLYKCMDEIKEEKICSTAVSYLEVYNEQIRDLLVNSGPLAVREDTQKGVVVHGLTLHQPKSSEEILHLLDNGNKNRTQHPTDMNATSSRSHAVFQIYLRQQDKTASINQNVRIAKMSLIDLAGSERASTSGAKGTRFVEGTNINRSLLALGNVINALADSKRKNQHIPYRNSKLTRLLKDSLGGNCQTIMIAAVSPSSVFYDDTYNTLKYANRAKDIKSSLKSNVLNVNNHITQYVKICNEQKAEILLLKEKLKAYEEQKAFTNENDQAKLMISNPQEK
Summary of the method: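 Microtubule-stimulated ATPase of KIF18A(1-417) run with 60 μg/mL microtubules, 25 μM ATP and 2.5 nM enzyme, compounds at 0-10 μM final, 120 min at ambient temperature. ADP formed was read by ADP-Glo chemiluminescence after two 30-min reagent incubations.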

[2] = system: OVCAR3 cells; assay: Cell proliferation activity test in OVCAR3 cells (CyQUANT Direct); type: cell-based; settings: 3 days incubation, CyQUANT fluorescence detection, read-out: OVCAR-3_IC50_nM
Summary of the method: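 Log-phase cells in RPMI-1640 with 10% FBS were seeded overnight, then exposed to compound at final 0–10 μM (0.2% DMSO) for 3 days at 37 °C, 5% CO2. Proliferation was read by CyQUANT Direct fluorescence after 60 min at 37 °C.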

[3] = system: HT29 cells; assay: CyQuant cell proliferation activity test in HT29 cells; type: cell-based; settings: 2000 cells per well, 3 days incubation, IC50 by XLFIT, read-out: HT29_IC50_nM
Summary of the method: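 Cells seeded at 2000/well in RPMI-1640 with 10% FBS, overnight, then exposed 3 days at 37 °C to compound from 3000 nM top, 3-fold, 9 points, 0.2% DMSO. CyQuant read after 1 h; IC50 from curve fit.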

SMILES | IC50 [1] [nM] | IC50 ([2]; Homo sapiens, OVCAR-3, 72 h) [nM] | IC50 ([3]; Homo sapiens, HT-29, 72 h) [nM] | IC50 [2] [nM] | IC50 [3] [nM]
O=C(Nc1cc(N2CCC(F)(F)CC2)c2nc(C(F)(F)F)ccc2c1)c1ccc(NS(=O)(=O)CCO)cc1N1CCC2(CC1)CC2 [Example 69, (2-(6-Azaspiro[2.5]octan-6-yl)-4-{[(2-hydroxyethyl)sulfonyl]amino}phenyl)-N-[8-(4,4-difluoropiperidinyl)-2-(trifluoromethyl)(6-quinolinyl)]formamide] | 1030 | 1040 | 1110 | – | –
Cc1ccc2cc(NC(=O)c3ccc(NS(=O)(=O)CCO)cc3N3CCC4(CC3)CC4)cc(N3CCC(F)(F)CC3)c2n1 [Example 64] | 116 | 76 | 82 | – | –
Cc1cc2cc(NC(=O)c3ccc(NS(=O)(=O)CCO)cc3N3CCC4(CC3)CC4)cc(N3CCC(F)(F)CC3)c2nc1N [Example 89, N-[2-Amino-8-(4,4-difluoropiperidinyl)-3-methyl (6-quinolinyl)](2-(6-azaspiro[2.5]octan-6-yl)-4-{[(2-hydroxyethyl)sulfonyl]amino}phenyl)formamide] | 179 | – | – | 32 | 32
C[C@@H](CO)S(=O)(=O)Nc1ccc(C(=O)Nc2cc3cccnc3c(N3CCC(F)(F)CC3)n2)c(N2CCC3(CC2)CC3)c1 [Example 97, 2-{6-azaspiro[2.5]octan-6-yl}-N-[8-(4,4-difluoropiperidin-1-yl)-1,7-naphthyridin-6-yl]-4-[(2S)-1-hydroxypropane-2-sulfonamido]benzamide] | 153 | 13.9 | 17 | – | –
Nc1cnc2c(N3CCC(F)(F)CC3)c(F)c(NC(=O)c3ccc(NS(=O)(=O)CCO)cc3N3CCC4(CC3)CC4)cc2c1 [Example 91, N-[3-amino-8-(4,4-difluoropiperidin-1-yl)-7-fluoroquinolin-6-yl]-2-{6-azaspiro[2.5]octan-6-yl}-4-(2-hydroxyethanesulfonamido)benzamide] | 173 | 13 | 16 | – | –
CN1Cc2nc(NC(=O)c3ccc(NS(=O)(=O)CCO)cc3N3CCC4(CC3)CC4)nc(N3CCC(F)(F)CC3)c2C1 [Example 8, N-(4-(4,4-difluoropiperidin-1-yl)-6-methyl-6,7-dihydro-5H-pyrrolo[3,4-d]pyrimidin-2-yl)-4-(2-hydroxyethylsulfonamido)-2-(6-azaspiro[2.5]octan-6-yl)benzamide] | 280 | > 3000 | > 3000 | – | –
N#Cc1ccc2cc(NC(=O)c3ccc(NS(=O)(=O)CCO)cc3N3CCC4(CC3)CC4)cc(N3CCC(F)(F)CC3)c2n1 [Example 68, N-(2-cyano-8-(4,4-difluoropiperidin-1-yl)quinolin-6-yl)-4-((2-hydroxyethyl)sulfon amido)-2-(6-azaspiro[2.5]oct-6-yl)benzamide] | 306 | 119 | 100 | – | –
Cn1ccc2cc(NC(=O)c3ccc(NS(=O)(=O)CCO)cc3N3CCC4(CC3)CC4)nc(N3CCC(F)(F)CC3)c21 [Example 37] | 121 | 121 | 25 | – | –
O=C(Nc1cc2ccccc2c(N2CCC(F)(F)CC2)n1)c1ccc(NS(=O)(=O)CCO)cc1N1CCC2(CC1)CC2 [Example 55] | 250 | 112 | 89 | – | –

Stronger by IC50 [1], values ahead:

IC50 [1] [nM] | IC50 ([2]; Homo sapiens, OVCAR-3, 72 h) [nM] | IC50 ([3]; Homo sapiens, HT-29, 72 h) [nM] | SMILES | IC50 [2] [nM] | IC50 [3] [nM]
94 | 4 | 6 | Nc1ccc2cc(NC(=O)c3ccc(NS(=O)(=O)CCO)cc3N3CCC4(CC3)CC4)nc(N3CCC(F)(F)CC3)c2n1 [Example 53, N-(2-amino-8-(4,4-difluoropiperidin-1-yl)-1,7-naphthyridin-6-yl)-4-(2-hydroxyethylsulfonamido)-2-(6-azaspiro[2.5]octan-6-yl)benzamide] | – | –
105 | 21 | 26 | O=C(Nc1cc2cccnc2c(N2CCC(F)(F)CC2)n1)c1ccc(NS(=O)(=O)CCO)cc1N1CCC2(CC1)CC2 [Example 44] | – | –
27 | 7 | 10 | O=C(Nc1cc(N2CCC(F)(F)CC2)c2occc2c1)c1ccc(NS(=O)(=O)CCO)cc1N1CCC2(CC1)CC2 [Example 30, N-(7-(4,4-difluoropiperidin-1-yl)benzofuran-5-yl)-4-(2-hydroxyethylsulfonamido)-2-(6-azaspiro[2.5]octan-6-yl)benzamide] | – | –
46 | 26 | 9 | O=C(Nc1cc2ccsc2c(N2CCC(F)(F)CC2)n1)c1ccc(NS(=O)(=O)CCO)cc1N1CCC2(CC1)CC2 [Example 28, N-(7-(4,4-difluoropiperidin-1-yl)thieno[2,3-c]pyridin-5-yl)-4-(2-hydroxyethylsulfonamido)-2-(6-azaspiro[2.5]octan-6-yl)benzamide] | – | –
28.7 | 7 | 17 | O=C(Nc1cc2c(c(N3CCC(F)(F)CC3)n1)C(=O)NCC2)c1ccc(NS(=O)(=O)CCO)cc1N1CCC2(CC1)CC2 [Example 43, N-(1-(4,4-difluoropiperidin-1-yl)-8-oxo-5,6,7,8-tetrahydro-2,7-naphthyridin-3-yl)-4-(2-hydroxyethylsulfonamido)-2-(6-azaspiro[2.5]octan-6-yl)benzamide] | – | –
27 | 6 | 18 | O=C(Nc1cc2ccc(O)nc2c(N2CCC(F)(F)CC2)n1)c1ccc(NS(=O)(=O)CCO)cc1N1CCC2(CC1)CC2 [Example 54, 2-{6-azaspiro[2.5]octan-6-yl}-N-[8-(4,4-difluoropiperidin-1-yl)-2-hydroxy-1,7-naphthyridin-6-yl]-4-(2-hydroxyethanesulfonamido)benzamide] | – | –
13 | 18 | 28 | O=C(Nc1cn2cnnc2c(N2CCC(F)(F)CC2)n1)c1ccc(NS(=O)(=O)CCO)cc1N1CCC2(CC1)CC2 [Example 19, N-(8-(4,4-difluoropiperidin-1-yl)-[1,2,4]triazolo[4,3-a]pyrazin-6-yl)-4-((2-hydroxyethyl)sulfonamido)-2-(6-azaspiro[2.5]oct-6-yl)benzamide] | – | –
38 | 4 | 4 | O=C(Nc1cc(N2CCC(F)(F)CC2)c2ncsc2c1)c1ccc(NS(=O)(=O)CCO)cc1N1CCC2(CC1)CC2 [Example 41, 2-{6-Azaspiro[2.5]octan-6-yl}-N-[4-(4,4-difluoropiperidin-1-yl)-1,3-benzothiazol-6-yl]-4-(2-hydroxyethanesulfonamido) benzamide] | – | –
71 | 8 | 9 | O=C(Nc1cc2occc2c(N2CCC(F)(F)CC2)n1)c1ccc(NS(=O)(=O)CCO)cc1N1CCC2(CC1)CC2 [Example 31, N-(4-(4,4-difluoropiperidin-1-yl)furo[3,2-c]pyridin-6-yl)-4-(2-hydroxyethylsulfonamido)-2-(6-azaspiro[2.5]octan-6-yl)benzamide] | – | –
41 | 154 | 425 | NC(=O)c1cnc2c(N3CCC(F)(F)CC3)cc(NC(=O)c3ccc(NS(=O)(=O)CCO)cc3N3CCC4(CC3)CC4)cc2c1 [Example 88, 6-(2-{6-azaspiro[2.5]octan-6-yl}-4-(2-hydroxyethanesulfonamido)benzoylamino)-8-(4,4-difluoropiperidin-1-yl)quinoline-3-carboxamide] | – | –
29 | 1350 | 2020 | O=C(Nc1nc2c(c(N3CCC(F)(F)CC3)n1)COC2)c1ccc(NS(=O)(=O)CCO)cc1N1CCC2(CC1)CC2 [Example 4, N-(4-(4,4-difluoropiperidin-1-yl)-5,7-dihydrofuro[3,4-d]pyrimidin-2-yl)-4-(2-hydroxyethylsulfonamido)-2-(6-azaspiro[2.5]octan-6-yl)benzamide] | – | –
66 | 18 | 13 | COc1cc2cc(NC(=O)c3ccc(NS(=O)(=O)CCO)cc3N3CCC4(CC3)CC4)nc(N3CCC(F)(F)CC3)c2nn1 [Example 60, N-(8-(4,4-difluoropiperidin-1-yl)-3-methoxypyrido[3,4-c]pyridazin-6-yl)-4-(2-hydroxyethylsulfonamido)-2-(6-azaspiro[2.5]octan-6-yl)benzamide] | – | –
34 | 12 | 13 | O=C(Nc1cc2ccncc2c(N2CCC(F)(F)CC2)n1)c1ccc(NS(=O)(=O)CCO)cc1N1CCC2(CC1)CC2 [Example 56] | – | –
23 | 35 | 80 | O=C(Nc1cc(N2CCC(F)(F)CC2)c2nc(O)ccc2c1)c1ccc(NS(=O)(=O)CCO)cc1N1CCC2(CC1)CC2 [Example 66] | – | –

From patent US20260159500A1, “KINESIN KIF18A INHIBITOR AND USE THEREOF” (SHANGHAI APEIRON THERAPEUTICS COMPANY LIMITED, priority 2022, published 2026)
